Laboratory results published in PMC3145970, “Specific CLK Inhibitors from a Novel Chemotype for Regulation of Alternative Splicing” (Chemistry & Biology, 2011).
Like-named read-outs stand apart in the source and are kept apart here.

Assays:
Test in all cases: Thermal stability shift assay
Assay type in all cases: binding
PKACa = PKACa (Homo sapiens, UniProt P17612); details: read-out: Tm shift PKACa
Description: (§1) Thermal denaturation experiments were carried out in an Mx3005p real-time PCR machine (Agilent) using a protein concentration of 2 μM and an inhibitor concentration of 10 μM. Samples were buffered in 10 mM HEPES (pH 7.5), 500 mM NaCl and a 1:1000 dilution of SyproOrange (Invitrogen). The assay and data evaluation were carried out as described ([Bullock et al., 2005])

RSK4 = RSK4 (Homo sapiens, UniProt Q9UK32); details: read-out: Tm shift RSK4
Description: as §1

PKCz = biological target: T1, PKCz (Homo sapiens, UniProt Q05513); details: read-out: Tm shift PKCz
T1 sequence (Q05513 1-592): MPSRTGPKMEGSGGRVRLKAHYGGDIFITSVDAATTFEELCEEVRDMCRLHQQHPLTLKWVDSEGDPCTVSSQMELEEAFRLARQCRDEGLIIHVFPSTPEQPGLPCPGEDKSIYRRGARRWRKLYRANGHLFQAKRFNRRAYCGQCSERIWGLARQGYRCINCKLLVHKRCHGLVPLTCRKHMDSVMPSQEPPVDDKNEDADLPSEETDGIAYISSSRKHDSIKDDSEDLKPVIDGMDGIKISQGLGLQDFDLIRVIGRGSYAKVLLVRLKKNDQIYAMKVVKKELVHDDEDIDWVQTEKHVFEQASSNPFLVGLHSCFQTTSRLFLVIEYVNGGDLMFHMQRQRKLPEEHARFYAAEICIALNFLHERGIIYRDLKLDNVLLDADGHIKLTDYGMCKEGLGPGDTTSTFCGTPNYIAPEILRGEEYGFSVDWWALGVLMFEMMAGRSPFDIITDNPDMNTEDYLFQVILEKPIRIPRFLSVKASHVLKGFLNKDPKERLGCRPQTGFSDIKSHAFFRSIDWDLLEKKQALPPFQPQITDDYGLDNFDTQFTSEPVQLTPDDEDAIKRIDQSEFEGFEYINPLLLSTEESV
Description: as §1

DRAK2 = biological target: T2, DRAK2 (Homo sapiens, UniProt O94768); details: read-out: Tm shift DRAK2
T2 construct: purchased in-house (SGC Oxford thermal shift panel)
T2 sequence (O94768 1-372): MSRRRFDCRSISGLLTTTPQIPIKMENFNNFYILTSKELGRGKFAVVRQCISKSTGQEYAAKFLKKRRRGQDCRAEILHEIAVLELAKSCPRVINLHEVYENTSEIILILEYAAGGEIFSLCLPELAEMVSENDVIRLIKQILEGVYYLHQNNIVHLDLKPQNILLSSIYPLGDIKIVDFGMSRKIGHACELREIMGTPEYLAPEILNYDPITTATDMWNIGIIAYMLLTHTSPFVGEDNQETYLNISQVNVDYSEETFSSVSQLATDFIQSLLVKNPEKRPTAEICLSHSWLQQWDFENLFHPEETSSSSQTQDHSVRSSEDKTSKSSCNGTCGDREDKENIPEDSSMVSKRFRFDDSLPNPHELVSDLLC
Description: as §1

PKN2 = PKN2 (Homo sapiens, UniProt Q16513); details: read-out: Tm shift PKN2
Description: as §1

CaMK1d = CaMK1d (Homo sapiens, UniProt Q8IU85); details: read-out: Tm shift CaMK1d
Description: as §1

PKD3 = biological target: T3, PKD3 (Homo sapiens, UniProt O94806); details: read-out: Tm shift PKD3
T3 sequence (O94806 1-890): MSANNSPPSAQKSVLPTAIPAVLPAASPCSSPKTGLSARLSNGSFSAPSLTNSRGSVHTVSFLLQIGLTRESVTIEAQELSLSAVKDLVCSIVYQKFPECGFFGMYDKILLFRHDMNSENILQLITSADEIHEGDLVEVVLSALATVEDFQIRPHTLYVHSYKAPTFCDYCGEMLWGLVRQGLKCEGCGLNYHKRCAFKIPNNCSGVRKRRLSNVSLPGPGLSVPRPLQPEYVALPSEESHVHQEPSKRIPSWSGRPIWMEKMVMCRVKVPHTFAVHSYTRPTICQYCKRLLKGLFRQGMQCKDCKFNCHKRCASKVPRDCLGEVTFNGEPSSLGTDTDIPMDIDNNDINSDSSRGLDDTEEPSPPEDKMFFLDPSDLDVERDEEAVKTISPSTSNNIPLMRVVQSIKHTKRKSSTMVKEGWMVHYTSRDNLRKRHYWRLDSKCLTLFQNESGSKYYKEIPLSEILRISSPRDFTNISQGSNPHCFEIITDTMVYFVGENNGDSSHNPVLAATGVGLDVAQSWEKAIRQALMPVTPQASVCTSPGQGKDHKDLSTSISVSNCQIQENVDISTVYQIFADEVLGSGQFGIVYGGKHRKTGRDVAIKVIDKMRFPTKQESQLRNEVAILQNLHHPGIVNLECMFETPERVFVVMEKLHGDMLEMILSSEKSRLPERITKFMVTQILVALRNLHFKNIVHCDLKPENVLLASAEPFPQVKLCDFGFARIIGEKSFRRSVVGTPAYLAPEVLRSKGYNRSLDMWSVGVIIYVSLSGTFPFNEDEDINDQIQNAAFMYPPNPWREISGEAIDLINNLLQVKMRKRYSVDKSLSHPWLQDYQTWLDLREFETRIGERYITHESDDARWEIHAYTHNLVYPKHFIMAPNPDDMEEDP
Description: as §1

AAK1 = AAK1 (Homo sapiens, UniProt Q2M2I8); details: read-out: Tm shift AAK1
Description: as §1

ZC2/TNIK = ZC2/TNIK (Homo sapiens, UniProt Q9UKE5); details: read-out: Tm shift ZC2/TNIK
Description: as §1

AAK1, sequence (Q2M2I8 whole entry): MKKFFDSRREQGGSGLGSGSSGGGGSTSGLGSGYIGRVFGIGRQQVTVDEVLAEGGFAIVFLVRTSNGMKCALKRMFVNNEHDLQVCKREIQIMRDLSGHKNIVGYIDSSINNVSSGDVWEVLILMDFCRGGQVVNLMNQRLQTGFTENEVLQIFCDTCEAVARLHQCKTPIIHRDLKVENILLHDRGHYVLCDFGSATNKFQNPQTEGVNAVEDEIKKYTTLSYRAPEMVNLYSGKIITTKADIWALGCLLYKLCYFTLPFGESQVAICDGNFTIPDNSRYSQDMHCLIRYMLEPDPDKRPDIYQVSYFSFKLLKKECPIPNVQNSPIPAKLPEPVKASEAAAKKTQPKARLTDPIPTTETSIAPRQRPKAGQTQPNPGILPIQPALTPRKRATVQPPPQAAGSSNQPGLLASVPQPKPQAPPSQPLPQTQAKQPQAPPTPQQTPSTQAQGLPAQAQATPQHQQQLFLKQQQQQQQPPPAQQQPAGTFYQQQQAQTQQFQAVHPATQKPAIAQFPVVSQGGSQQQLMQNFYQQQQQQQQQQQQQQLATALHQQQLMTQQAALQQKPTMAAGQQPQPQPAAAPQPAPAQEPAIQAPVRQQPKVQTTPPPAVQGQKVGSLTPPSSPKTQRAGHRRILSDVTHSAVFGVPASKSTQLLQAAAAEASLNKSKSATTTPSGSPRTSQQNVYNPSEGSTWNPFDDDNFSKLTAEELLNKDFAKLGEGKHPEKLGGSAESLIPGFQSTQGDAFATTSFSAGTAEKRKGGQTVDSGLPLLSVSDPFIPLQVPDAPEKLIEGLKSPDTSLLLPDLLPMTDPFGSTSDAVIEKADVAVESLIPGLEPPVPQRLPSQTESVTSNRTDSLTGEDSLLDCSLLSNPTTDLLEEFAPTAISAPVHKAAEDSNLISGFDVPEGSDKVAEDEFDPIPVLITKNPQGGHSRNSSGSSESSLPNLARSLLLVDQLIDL
ZC2/TNIK, sequence (Q9UKE5 whole entry): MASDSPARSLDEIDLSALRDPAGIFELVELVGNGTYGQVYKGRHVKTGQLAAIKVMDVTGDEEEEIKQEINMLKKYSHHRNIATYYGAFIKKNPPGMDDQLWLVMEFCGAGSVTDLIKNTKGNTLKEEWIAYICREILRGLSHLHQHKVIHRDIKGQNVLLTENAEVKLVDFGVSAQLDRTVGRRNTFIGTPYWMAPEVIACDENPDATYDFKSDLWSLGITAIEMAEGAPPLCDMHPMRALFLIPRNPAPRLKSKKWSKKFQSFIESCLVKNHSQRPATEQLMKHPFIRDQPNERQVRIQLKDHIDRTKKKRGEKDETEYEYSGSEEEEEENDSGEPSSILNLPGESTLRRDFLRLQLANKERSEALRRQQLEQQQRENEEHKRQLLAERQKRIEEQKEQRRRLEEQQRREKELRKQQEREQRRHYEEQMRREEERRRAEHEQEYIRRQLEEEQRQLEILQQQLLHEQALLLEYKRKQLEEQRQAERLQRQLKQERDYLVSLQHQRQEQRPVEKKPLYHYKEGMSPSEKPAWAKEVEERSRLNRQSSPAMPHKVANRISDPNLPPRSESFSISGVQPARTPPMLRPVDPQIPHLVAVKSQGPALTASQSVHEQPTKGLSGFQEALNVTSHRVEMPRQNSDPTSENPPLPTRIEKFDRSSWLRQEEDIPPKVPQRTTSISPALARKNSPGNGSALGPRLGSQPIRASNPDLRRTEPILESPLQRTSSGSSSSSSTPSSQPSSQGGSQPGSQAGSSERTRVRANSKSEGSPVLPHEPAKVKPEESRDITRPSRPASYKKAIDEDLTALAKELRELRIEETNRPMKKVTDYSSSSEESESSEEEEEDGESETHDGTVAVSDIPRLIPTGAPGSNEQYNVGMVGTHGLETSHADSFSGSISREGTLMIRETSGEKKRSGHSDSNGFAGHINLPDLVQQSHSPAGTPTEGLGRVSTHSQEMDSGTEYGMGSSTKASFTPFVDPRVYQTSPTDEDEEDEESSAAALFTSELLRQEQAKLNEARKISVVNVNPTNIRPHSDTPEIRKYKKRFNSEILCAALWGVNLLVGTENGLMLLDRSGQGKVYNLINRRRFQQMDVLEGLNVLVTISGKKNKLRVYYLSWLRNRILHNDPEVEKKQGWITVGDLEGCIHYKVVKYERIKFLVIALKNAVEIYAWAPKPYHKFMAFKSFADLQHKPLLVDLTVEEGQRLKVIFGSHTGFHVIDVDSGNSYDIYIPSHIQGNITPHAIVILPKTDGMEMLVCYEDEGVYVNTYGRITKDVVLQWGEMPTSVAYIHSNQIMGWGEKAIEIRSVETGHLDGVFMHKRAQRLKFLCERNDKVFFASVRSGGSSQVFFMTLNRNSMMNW
RSK4, sequence (Q9UK32 whole entry): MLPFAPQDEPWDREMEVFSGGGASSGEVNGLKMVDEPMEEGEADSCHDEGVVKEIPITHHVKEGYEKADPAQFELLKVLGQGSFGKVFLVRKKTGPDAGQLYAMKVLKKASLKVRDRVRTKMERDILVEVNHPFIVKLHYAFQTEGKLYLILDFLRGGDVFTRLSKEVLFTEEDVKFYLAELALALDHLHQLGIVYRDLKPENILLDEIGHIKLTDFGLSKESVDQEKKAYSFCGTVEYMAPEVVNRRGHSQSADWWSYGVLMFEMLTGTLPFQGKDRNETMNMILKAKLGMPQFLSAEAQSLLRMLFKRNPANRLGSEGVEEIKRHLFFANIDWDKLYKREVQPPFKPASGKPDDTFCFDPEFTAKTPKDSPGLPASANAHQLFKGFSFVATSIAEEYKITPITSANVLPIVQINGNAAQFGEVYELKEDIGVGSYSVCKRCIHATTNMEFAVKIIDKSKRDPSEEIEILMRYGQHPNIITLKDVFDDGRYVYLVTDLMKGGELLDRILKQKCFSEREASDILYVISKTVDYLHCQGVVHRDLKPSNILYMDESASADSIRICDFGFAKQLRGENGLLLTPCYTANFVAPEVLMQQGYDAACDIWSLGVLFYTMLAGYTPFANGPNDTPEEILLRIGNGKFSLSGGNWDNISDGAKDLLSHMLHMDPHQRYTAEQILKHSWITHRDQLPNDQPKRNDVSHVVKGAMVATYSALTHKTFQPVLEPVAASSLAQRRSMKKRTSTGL
PKN2, sequence (Q16513 whole entry): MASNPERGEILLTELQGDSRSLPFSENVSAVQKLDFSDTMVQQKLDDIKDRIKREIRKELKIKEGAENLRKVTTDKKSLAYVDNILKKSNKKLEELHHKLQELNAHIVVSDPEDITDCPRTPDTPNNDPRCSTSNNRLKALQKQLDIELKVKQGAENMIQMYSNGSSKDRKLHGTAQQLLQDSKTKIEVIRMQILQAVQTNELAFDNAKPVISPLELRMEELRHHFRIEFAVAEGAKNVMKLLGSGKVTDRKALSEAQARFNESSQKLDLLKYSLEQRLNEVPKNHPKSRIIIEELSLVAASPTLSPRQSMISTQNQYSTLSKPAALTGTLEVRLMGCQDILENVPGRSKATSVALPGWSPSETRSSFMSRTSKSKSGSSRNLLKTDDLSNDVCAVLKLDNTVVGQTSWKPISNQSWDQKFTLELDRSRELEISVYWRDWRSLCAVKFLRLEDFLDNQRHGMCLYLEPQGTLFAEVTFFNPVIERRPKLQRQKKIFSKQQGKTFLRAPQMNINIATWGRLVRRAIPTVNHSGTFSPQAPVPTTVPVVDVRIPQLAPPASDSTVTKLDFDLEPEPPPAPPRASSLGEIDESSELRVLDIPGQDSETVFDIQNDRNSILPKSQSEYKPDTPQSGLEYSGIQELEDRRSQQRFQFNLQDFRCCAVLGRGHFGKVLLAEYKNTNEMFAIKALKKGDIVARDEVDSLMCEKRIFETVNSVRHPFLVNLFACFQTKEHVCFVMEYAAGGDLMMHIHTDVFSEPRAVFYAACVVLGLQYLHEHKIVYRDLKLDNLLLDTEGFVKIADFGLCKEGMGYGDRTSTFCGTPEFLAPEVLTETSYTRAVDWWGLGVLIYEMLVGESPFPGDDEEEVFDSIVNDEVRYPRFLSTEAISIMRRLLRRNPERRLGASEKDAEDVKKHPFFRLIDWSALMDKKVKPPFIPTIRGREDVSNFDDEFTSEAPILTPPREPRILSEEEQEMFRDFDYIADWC
CaMK1d, sequence (Q8IU85 whole entry): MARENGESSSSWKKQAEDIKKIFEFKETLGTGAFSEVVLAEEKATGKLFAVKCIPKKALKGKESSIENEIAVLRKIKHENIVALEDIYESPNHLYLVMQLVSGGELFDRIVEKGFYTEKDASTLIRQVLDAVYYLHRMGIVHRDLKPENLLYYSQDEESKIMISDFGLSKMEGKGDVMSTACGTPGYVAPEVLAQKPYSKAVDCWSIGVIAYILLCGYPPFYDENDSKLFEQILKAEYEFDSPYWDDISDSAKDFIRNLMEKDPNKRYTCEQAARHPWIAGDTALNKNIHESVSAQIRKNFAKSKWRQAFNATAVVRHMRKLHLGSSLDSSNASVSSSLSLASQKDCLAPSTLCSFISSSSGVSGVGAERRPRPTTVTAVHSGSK

## CCOC(=O)c1c(C(C#N)=CN(C)C)c2ccc(Cl)c(Cl)c2n1C (mixture of isomers) [compound 2, (E/Z)-Ethyl 6,7-Dichloro-3-[1-Cyano-2-(Dimethylamino)Vinyl]-1-Methyl-1H-Indole-2-Carboxylate]
PKACa; inhibitor 10 μM
  ΔTm at 10 µM: 0.2 °C
RSK4; inhibitor 10 μM
  ΔTm at 10 µM: -0.2 °C
PKCz; inhibitor 10 μM
  ΔTm at 10 µM: 0.4 °C
DRAK2; inhibitor 10 μM
  ΔTm at 10 µM: 0 °C
PKN2; inhibitor 10 μM
  ΔTm at 10 µM: -0.5 °C
CaMK1d; inhibitor 10 μM
  ΔTm at 10 µM: -0.4 °C
PKD3; inhibitor 10 μM
  ΔTm at 10 µM: 0 °C
AAK1; inhibitor 10 μM
  ΔTm at 10 µM: 0.3 °C
ZC2/TNIK; inhibitor 10 μM
  ΔTm at 10 µM: 0.1 °C

## NC1=NC(=O)/C(=C2\CCNC(=O)c3[nH]c(Br)cc32)N1 [Hymenialdisine, hymenialdisine, reference compound]
PKACa; inhibitor 10 μM
  ΔTm at 10 µM: 0.8 °C
RSK4; inhibitor 10 μM
  ΔTm at 10 µM: 1.7 °C
PKCz; inhibitor 10 μM
  ΔTm at 10 µM: -0.2 °C
DRAK2; inhibitor 10 μM
  ΔTm at 10 µM: 13 °C
PKN2; inhibitor 10 μM
  ΔTm at 10 µM: 0.8 °C
CaMK1d; inhibitor 10 μM
  ΔTm at 10 µM: 0 °C
PKD3; inhibitor 10 μM
  ΔTm at 10 µM: 2 °C
AAK1; inhibitor 10 μM
  ΔTm at 10 µM: 2.7 °C
ZC2/TNIK
  ΔTm at 10 µM: 3.4 °C

## CCOC(=O)c1c(C(C#N)=CN)c2ccc(Cl)c(Cl)c2n1C (mixture of isomers) [KH-CB20, (E/Z)-Ethyl 3-(2-Amino-1-Cyanovinyl)-6,7-Dichloro-1-Methyl-1H-Indole-2-Carboxylate]
PKACa
  ΔTm at 10 µM: 0.3 °C
RSK4
  ΔTm at 10 µM: 1.1 °C
PKCz
  ΔTm at 10 µM: 0.1 °C
DRAK2
  ΔTm at 10 µM: 1.5 °C
PKN2
  ΔTm at 10 µM: 0.1 °C
CaMK1d
  ΔTm at 10 µM: -0.6 °C
PKD3
  ΔTm at 10 µM: 0.3 °C
AAK1
  ΔTm at 10 µM: 1.3 °C
ZC2/TNIK
  ΔTm at 10 µM: -0.1 °C

## CCOC(=O)c1c(/C(C#N)=C\N)c2ccc(Cl)c(Cl)c2n1C [KH-CB19, (E)-Ethyl 3-(2-Amino-1-Cyanovinyl)-6,7-Dichloro-1-Methyl-1H-Indole-2-Carboxylate]
PKACa
  ΔTm at 10 µM: 0 °C
RSK4
  ΔTm at 10 µM: 1.6 °C
PKCz
  ΔTm at 10 µM: -0.2 °C
DRAK2
  ΔTm at 10 µM: 1.7 °C
PKN2
  ΔTm at 10 µM: 0.6 °C
CaMK1d
  ΔTm at 10 µM: 0.1 °C
PKD3
  ΔTm at 10 µM: 0.1 °C
AAK1
  ΔTm at 10 µM: 1.3 °C
ZC2/TNIK
  ΔTm at 10 µM: 0.2 °C

## Cn1c2c(Cl)c(Cl)ccc2c2c(C#N)c[nH]c(=O)c21 [compound 3, 7,8-Dichloro-9-Methyl-1-Oxo-2,9-Dihydro-1H-Pyrido[3,4-b]Indole-4-Carbonitrile]
PKACa; inhibitor 10 μM
  ΔTm at 10 µM: 0.4 °C
RSK4; inhibitor 10 μM
  ΔTm at 10 µM: 1.3 °C
PKCz; inhibitor 10 μM
  ΔTm at 10 µM: 0.5 °C
DRAK2; inhibitor 10 μM
  ΔTm at 10 µM: 0.9 °C
PKN2; inhibitor 10 μM
  ΔTm at 10 µM: 2.3 °C
CaMK1d; inhibitor 10 μM
  ΔTm at 10 µM: -0.3 °C
PKD3; inhibitor 10 μM
  ΔTm at 10 µM: 0.4 °C
AAK1; inhibitor 10 μM
  ΔTm at 10 µM: 1.4 °C
ZC2/TNIK; inhibitor 10 μM
  ΔTm at 10 µM: 0 °C
